# According to paper PMC10889512, “Pyrimidine Schiff Bases: Synthesis, Structural Characterization and Recent Studies on Biological Activities” (International Journal of Molecular Sciences, 2024):
# Tests used:
# [1] = test system: CaCo-2; assay: Neutral red uptake assay on CaCo-2; assay type: cell-based; details: Homo sapiens; CaCo-2, 72 h treatment
# Description: (§1) Based on the results obtained for the RPTEC cell line, the following concentrations of 4b–d were chosen to be applied to neoplastic cell lines: 0.1, 1, 10, 25, 50, and 100 µM. A172, AGS, CaCo-2, HeLa, and HepG2 cancer cell lines were used to perform a neutral red uptake assay. The obtained results were compared with a negative control (cell lines incubated without tested compounds), and half-maximal inhibitory concentration (IC50) values were calculated. Cell lines were plated in 96-well plates at a density of 1 × 10^4 cells/well. After 24 h incubation, which allowed the cells to attach and start to proliferate, the culture media were replaced with 4a–d dissolved in the appropriate medium at concentrations of 1, 10, 50, 100, 150 and 200 µM. […] Negative (1% DMSO in medium) and positive (1 µM staurosporine) controls were also included. Plates were incubated at 37 °C for 24, 48, and 72 h before the neutral red uptake assay. The neutral red uptake assay was performed as described by Repetto et al.. Briefly, the medium from all wells was discarded, the attached cells were washed with 100 µL PBS, and then 100 µL of neutral red working solution in medium (40 µg/mL) was added to each well. The neutral red solution was incubated overnight in the same conditions as the cells and centrifuged before being added to the cells. The plates were incubated for at least 2 h at 37 °C, 5% CO2, in a humidified atmosphere. Next, the neutral red medium was removed, and the cells were washed with 100 µL PBS. A 100 µL quantity of destain solution consisting of 50% ethanol, 1% glacial acetic acid, and deionized water was added to each well. Plates were incubated for 30 min with constant shaking on a horizontal shaker at 37 °C. Absorption was measured at 540 nm excitation. The cells’ viability was calculated by comparing results from experimental sets with negative controls according to the formula: % viability=ODtest substance−ODblind/ODnegative control−ODblind×100
# [2] = test system: HepG2; assay: Neutral red uptake assay on HepG2; assay type: cell-based; details: Homo sapiens; HepG2, 72 h treatment
# Description: as §1
# [3] = test system: A172 cells; assay: Flow cytometry FDA/PI staining, cell viability, A172; assay type: cell-based, human
# Description: A detailed analysis of potential cytotoxic mechanisms has been performed only for the selected compound (4b) where the IC50 values under 100 µM were detected in the screening NR assay. Flow cytometry was performed on the A172 and AGS cell lines. Cells were incubated with compound 4b at IC50 for 24, 48, and 72 h before analysis. Fluorescein diacetate (FDA) and propidium iodide (PI) were used as indicators for viable and nonviable (necrotic) cells. Most of the events were captured in the first and the fourth quadrant, which represent viable and necrotic cells, respectively. […] Similar results were obtained for the AGS cell line (Figure 8B), where the viability was 60.95%/55.10%/44.99% after the same incubation periods, respectively. Some events occurred in the second quadrant, but it was difficult to unequivocally categorize them into viable or nonviable (apoptotic/necrotic) cell populations, and thus more sensitive dyes, able to distinguish between the types of cell death, were needed.
# Two approaches for flow cytometry were used—FDA/PI staining to determine cell viability and annexin V/PI staining for cell death pathway determination.
# For cell viability determination, cells were plated in 6-well plates at a density of 1 × 10^5 cells/well and incubated for 24 h at 37 °C, 5% CO2 and in a humidified atmosphere. Next, cells were treated with 4b at a concentration calculated as IC50 in neutral red uptake assay. After 24, 48, and 72 h incubation, the cells (either adhered or floating) were collected, centrifuged at 1600 rpm, and washed with PBS. FDA and PI stock solution at a 1 mM concentration were prepared in DMSO and H2O, respectively. After centrifugation and supernatant discarding, cells were stained with FDA at a final concentration of 1 µM prepared in PBS and incubated in the dark. After 15 min, they were centrifuged at 1600 rpm, resuspended in ice-cold PBS, and placed on ice. Samples were stained with 1 µM PI for 2 min before the cytometry evaluation. […]
# [4] = test system: P. aeruginosa 27853; assay: Antimicrobial activity assay, microdilution; assay type: cell-based, Pseudomonas aeruginosa; details: concentration range from 0.5 µg/mL to 256 µg/mL
# Description: In vitro antimicrobial and antifungal activity was screened using microdilution and modified Richard’s medium. The assay was performed for compounds 4a, 4b, 4c, and 4d with seven reference microbial strains from ATTC (E. coli 25922, S. aureus 43300, K. pneumoniae 700603, A. baumannii 19606, P. aeruginosa 27853, E. faecalis 29212, and C. albicans 10231).
# Seven reference strains from the ATCC collection (Escherichia coli 25922, Staphylococcus aureus 43300, Klebsiella pneumoniae 13883, Acinetobacter baumannii 19606, Pseudomonas aeruginosa 27853, Enterococcus faecalis 29212, and Candida albicans 10231) were used. The assay was performed according to a modified version of Richard et al.’s protocol and ISO standards 20776-1:2019 and 16256:2021 [78, 79]. Microdilution with spectrophotometric measurement was used to calculate MIC50 (minimal inhibitory concentration which decreased the microorganisms’ viability to 50%) values. Briefly, compounds were prepared 100× concentrated in DMSO, and during the whole experiment, they were diluted to 1× with TSB. Serial dilutions of tested compounds were made directly on plates at a concentration range of 0.5 to 256 µg/mL. Microorganisms were incubated for 24 h at 37 °C (bacteria) or 25 °C (yeast) on Petri dishes with TSA. The bacteria/yeast suspensions were prepared at a density 5 × 10^5 CFU/mL (for bacteria) or 0.5–2.5 × 10^5 CFU/mL (for yeast) with TSB. Also, appropriate controls were contained in the experiment: the positive control consisted of a specific strain in TSB, and the negative control was TSB alone. To ensure that used strains were not modified and were still responding to antibacterial/antifungal compounds established by EUCAST, additional tests were conducted with levofloxacin, gentamicin, and amphotericin B. Microplates were incubated on a shaker for 24 h at 37 ± 1 °C or 25 ± 1 °C for the bacteria and yeast strains, respectively. After the incubation, spectrophotometric measurement was performed at 580 nm. MIC50 was calculated by comparing the results obtained for experimental sets with positive controls. Next, 50 µL aliquots of 1% (m/v) TTC solution were added to each well. The plates were incubated on the shaker for 24 h at 37/25 °C. In living microbial cells, colourless TTC is converted into red formazan crystals, which allows for visual observation and MBC/MFC (minimal bactericidal/fungicidal concentration) value assessment.
compound,measurement,setting,value
"Cc1nc(-c2ccccc2)nc(Nc2ccc(F)cc2)c1C=Nc1cccc(Cl)c1 [compound 4b, 5-{[(3-chlorophenyl)imino]methyl}-N-(4-fluorophenyl)-6-methyl-2-phenylpyrimidin-4-amine]",IC50,[1],> 100 µM
same,IC50,[2],> 100 µM
same,"Q1 events (viable cells; viability), FDA/PI","[3]; A172, at IC50, 24 h",59.32%
same,"Q1 events (viable cells; viability), FDA/PI","[3]; A172, at IC50, 48 h",50.98%
same,"Q1 events (viable cells; viability), FDA/PI","[3]; A172, at IC50, 72 h",43.88%
same,MIC and MBC/MFC activity,[4],Neither MIC nor MBC/MFC activity was observed
